The values that follow come from patent US8598225B2, “Use of L-butylphthalide in the manufacture of medicaments for treatment of cerebral infarct” (CSPC Zhongqi Pharmaceutical Technology (Shijiazhuang) Co., …, priority 2003, dated 2013).

Data set [1] has as its system transient focal cerebral ischemic model (tMCAO). The data set can be described thus: Neurological behavioral evaluation of tMCAO rats (score 0-4). The conditions noted are these: for mean neurological score: 15 min after ischemia, scored at 24 h, vehicle 2.6±0.3; for improvement of neurological symptoms (in words): oral, d-NBP 20 and 40 mg/kg, dl-NBP 40 and 80 mg/kg, vs. vehicle.
Protocol: Male Wistar rats weighed 280-320 g were used, with each 5 rats kept in one cage. Animals were allowed free access to food and water at room temperature controlled at 23° C. The rats were anesthetized with 40 mg/kg of sodium pentobarbital. Under the surgical microscope, a midline neck skin incision was make to expose the right common cartotid artery, and the internal carotid artery (ICA) and external carotid artery (ECA) were then separated free from surrounding nerves and fascia, and the anastomotic branch was ligated. The ECA were ligated and cut, pulled to be straight and in line with ICA. A nylon suture with rounded tip and the diameter of 0.28 mm (coated with poly-L-lysine) was introduced from ECA into the lumen of the ICA for about 20 mm, advancing endocranially to the starting point of middle cerebral artery.
After 2 h of ischemia, the nylon suture was carefully withdrawn, and the ECA was ligated at the site of opening. The rats were then sutured and placed back into the cage, and allowed to reperfuse for 24 h. Room temperature throughout the operation was kept at 24-25° C. The rats were placed on the heating plate of 37° C. to maintain the body temperature throughout the operation. The administration was performed 15 minutes after ischemia.
Rats were divided into eight groups with 10 rats in each group. Group 1 was vehicle control with 1 ml/kg of vegetable oil; groups 2) and 3) were 40 and 80 mg/kg of dl-NBP; groups 4) and 5) were 20 and 40 mg/kg of d-NBP; groups 6) and 7) were 20 and 40 mg/kg of l-NBP; and group 8 was 0.1 mg/kg of MK801. Animals in groups 1-7 were orally administered, and animals in group 8 were intraperitoneally administered.
Neurological behavioral observation was conducted after 24 h of ischemia. Rats were lifted up by tail 1 inch away from the ground, and the conditions of both forelimbs were observed; both shoulders were pushed to observe if there was any difference between the resistances by both sides; the rats were placed down to the ground and their walking conditions were observed. Scores were given in accordance with the following criteria. • 0: strong forelimbs, symmetrically stretching towards the ground; identical resistance of both shoulders, and normal walk. • 1: contralateral shoulder flexion, forelimb flexion; identical resistance of both shoulders, and normal walk. • 2: contralateral shoulder flexion, forelimb flexion; decreased resistance of contralateral shoulder to push; and normal walk. • 3: contralateral shoulder flexion, forelimb flexion; decreased resistance of contralateral shoulder to push; and circling when walking • 4: contralateral shoulder flexion, forelimb flexion; and unable to autonomously move. The higher the score is, the more severe the behavioral disorder of the animal is.
The results were expressed as mean±standard error. Neurological behavioral score and cerebral infarct volume were statistically analyzed using one-way ANOVA and the difference between groups using posthoc LSD test. Result was considered to show a significant difference when p<0.05.

The test system is the same in data set [2]. The data set can be described thus: Cerebral infarct volume of tMCAO rats (2 h middle cerebral artery occlusion, 24 h reperfusion, TTC staining). It counts as in vivo, rat. The conditions noted are these: 15 min after ischemia; for reduction of infarct volume vs. vehicle group: tMCAO rats, p<0.001; for effect on infarct volume (in words): oral, l-NBP and d-NBP 20 and 40 mg/kg, dl-NBP 40 and 80 mg/kg, vs. vehicle.

For data set [3], the system named is micro-circulation. The conditions noted are these: previous studies; cited from earlier work.
For data set [4], the system named is acute ischemic cerebral stroke. The conditions noted are these: administration group; 192 cases multi centered, random, double blinded, placebo control (placebo 41.0%); cited from earlier work.

Entries after “also recorded” stand apart in the source; their conditions may differ.

Consider `C[C@]12N[C@H](Cc3ccccc31)c1ccccc12` [MK801], for which the mean neurological score in data set [1] (0.1 mg/kg intraperitoneal, p<0.001) was 0.8. The “adverse behavioral signs in treated animals” value in data set [1] (0.1 mg/kg intraperitoneal, tMCAO rats) was “the limbs were weak, and staggered when sprawling, ataxia occurred, and unilaterally circled”. Besides, in data set [2] (0.1 mg/kg intraperitoneal), the “reduction of infarct volume vs. vehicle group” value is 81.8%.

In the case of `CCCC[C@@H]1OC(=O)c2ccccc21` [l-NBP, L-n-butylphthalide], the mean neurological score in data set [1] (20 mg/kg oral, p<0.01) came out at 1.4; in data set [1] (40 mg/kg oral, p<0.001) it was 1.1. In addition, the “reduction of infarct volume vs. vehicle group” value in data set [2] (40 mg/kg oral, 24 h reperfusion) turned out to be 80.4%. Also, the “effect on infarct volume (in words)” value in data set [2] was “significantly reduced dose-dependently; also recorded: very significantly and dose dependently reduced”. The “cerebral protective and micro-circulation improving effect (in words)” value in data set [3] was “also has cerebral protective effect and micro-circulation improving effect”.

For `CCCC[C@H]1OC(=O)c2ccccc21` [d-NBP, dextro-butylphthalide], the “improvement of neurological symptoms (in words)” value in data set [1] is on record as “no significant improvement”. Further, in data set [2], the “effect on infarct volume (in words)” value is on record as “no significant effect”. In data set [3], the “cerebral protective and micro-circulation improving effect (in words)” value is on record as “no such effect”.

Regarding `CCCCC1OC(=O)c2ccccc21` (racemic) [dl-NBP, racemic butylphthalide], the “improvement of neurological symptoms (in words)” value in data set [1] was “no significant improvement”. Further, the “effect on infarct volume (in words)” value in data set [2] is reported as “no significant effect; also recorded: no reduction effect”. In addition, in data set [4], the total effective rate is on record as 70.7%.
